Laboratory results published in patent US8486996B2, “Aroylfuranes and aroylthiophenes” (Basilea Pharmaceutica AG, priority 2006, dated 2013).
Like-named read-outs stand apart in the source and are kept apart here.

Assays:
Type in all cases: cell-based
tumor cells [1] = assay: MTS proliferation assay (72 h read-out)
Description: B) MTS Proliferation Assay
The assay is performed in 96 well tissue culture plates. The cells (range: 1.5*10^3-10^4) are seeded out in 80 μl complete medium 24 h prior to compound treatment. The test compounds are added in 20 μl complete medium containing max 5% DMSO. The final compound concentrations in the assays are in the range of 0.001 μM-10 μM. The assay plates are incubated for 72 h at culture conditions. The MTS reagent is prepared according to the manufacturer's protocol (Promega G1111). 20 μl MTS reagent are added to each well; the assay plates are quickly spun and incubated for another 3 h at culture conditions. Subsequently, the plates are shortly shaked and absorption measured with a microplate-reader at 492 nm. The scores A, B, C and D are explained at the end of the Table.

tumor cells [2] = assay: Hoechst 33342 nuclear staining (48 h read-out)
Description: (§1) A) Hoechst 33342 Nuclear Staining
(§2) This assay is performed in 96 well tissue culture plates. Appropriate number of cells (adherent cells: 3-5*10^3, suspension cells: 8-10*10^3) are being seeded out in 80 μl complete medium. Adherent cells are incubated for 24 h for proper spreading out before addition of test compounds while suspension cells are immediately treated with test compounds after seeding out. The test compounds are added in 20 μl complete medium containing max 5% DMSO. The final compound concentrations in the assays are in the range of 0.001 μM-10 μM. After 24 h or 48 h incubation at culture conditions, 10 μl medium containing Hoechst 33342 dye (Sigma B-2261) at 2-5 μg/ml are added to each well. The assay plates are then further incubated for 30 minutes and subsequently analyzed with a standard inverted fluorescence microscope.
(§3) The readout allows the determination of the fraction of apoptotic nuclei as well as other morphological criteria specific for apoptosis as a function of the treatment. The scores A, B, C and D are explained at the end of the Table.

[3] = Hoechst 33342 nuclear staining (48 h read-out)
Description: as §1, §2, §3

tumor cells [4] = assay: Mitochondrial membrane potential, JC-1 (read-out 48 h); conditions: JC-1, 48 h
Description: D) Mitochondrial Membrane Potential
as §2, with “The final compound concentrations in the assays are in the range of 0.001 μM-10 μM.” left out, “JC-1 (Molecular Probes, T-3168)” for “Hoechst 33342 dye (Sigma B-2261)”, “microscope by using the FITC and TRITC filters.” for “microscope.”
The readout allows the determination of the fraction of cells which show a dissipation of the mitochondrial membrane potential strongly indicating an apoptotic cell death as a function of the treatment. The scores A, B, C and D are explained at the end of the Table.

[5] = Homo sapiens, HT-1080, HT1080 cells, read-out: MTS proliferation assay IC50, HT1080
[6] = Homo sapiens, HeLa cells, read-out: MTS proliferation assay IC50, HeLa
[7] = Homo sapiens, Jurkat cells, read-out: MTS proliferation assay IC50, Jurkat
[8] = Jily cells, read-out: MTS proliferation assay IC50, Jily
[9] = Homo sapiens, HeLa cells, read-out: Hoechst 33342 nuclear staining EC50, HeLa
[10] = Homo sapiens, Jurkat cells, read-out: Hoechst 33342 nuclear staining EC50, Jurkat
[11] = Homo sapiens, MRC5 cells, read-out: Hoechst 33342 nuclear staining EC50, MRC5
[12] = Homo sapiens, HeLa cells, read-out: Mitochondrial membrane potential (read-out 48 h) HeLa
[13] = Homo sapiens, Jurkat cells, read-out: Mitochondrial membrane potential (read-out 48 h) Jurkat
[14] = Homo sapiens, MCF7 cells, read-out: Mitochondrial membrane potential (read-out 48 h) MCF7
[15] = Jily cells, read-out: Mitochondrial membrane potential (read-out 48 h) Jily
[16] = HT1080 cells, read-out: MTS proliferation assay IC50, HT1080
[17] = HeLa cells, read-out: MTS proliferation assay IC50, HeLa
[18] = Jurkat cells, read-out: MTS proliferation assay IC50, Jurkat
[19] = HeLa cells, read-out: Hoechst 33342 nuclear staining EC50, HeLa
[20] = Jurkat cells, read-out: Hoechst 33342 nuclear staining EC50, Jurkat
[21] = MRC5 cells, read-out: Hoechst 33342 nuclear staining EC50, MRC5
[22] = HeLa cells, read-out: Mitochondrial membrane potential (read-out 48 h) HeLa
[23] = Jurkat cells, read-out: Mitochondrial membrane potential (read-out 48 h) Jurkat
[24] = MCF7 cells, read-out: Mitochondrial membrane potential (read-out 48 h) MCF7

SMILES | IC50 (tumor cells [1]; [8]) [nM] | EC50 (tumor cells [4]; [15]) [nM] | IC50 (tumor cells [1]; [16]) [nM] | IC50 (tumor cells [1]; [17]) [nM] | IC50 (tumor cells [1]; [18]) [nM] | EC50 (tumor cells [2]; [19]) [nM] | EC50 (tumor cells [2]; [20]) [nM] | EC50 (tumor cells [4]; [22]) [nM] | EC50 (tumor cells [4]; [23]) [nM] | EC50 (tumor cells [4]; [24]) [nM] | EC50 [3, 21] [nM] | also measured
CCOc1ccc(F)cc1C(=O)c1sc2nc(C)c(C)cc2c1N [Example 118, 5,6-Dimethyl-3-amino-2-(2′-ethoxy-5′-fluorobenzoyl)-thieno[2,3-b]pyridine] | 10 to 100 | 10 to 100 |  |  |  |  |  |  |  |  |  | IC50 (tumor cells [1]; [5]): 10 to 100 nM; IC50 (tumor cells [1]; [6]): 10 to 100 nM; IC50 (tumor cells [1]; [7]): 10 to 100 nM; EC50 (tumor cells [2]; [9]): 10 to 100 nM; EC50 (tumor cells [2]; [10]): 10 to 100 nM; EC50 [3, 11]: 10 to 100 nM; EC50 (tumor cells [4]; [12]): 100 to 1000 nM; EC50 (tumor cells [4]; [13]): 10 to 100 nM; EC50 (tumor cells [4]; [14]): > 1000 nM
Cc1cc2c(N)c(C(=O)c3cc(F)ccc3N3CCOCC3)sc2nc1C [Example 119, 5,6-Dimethyl-3-amino-2-(2′-N-morpholino-5′-fluorobenzoyl)-thieno[2,3-b]pyridin] | 10 to 100 | 100 to 1000 |  |  |  |  |  |  |  |  |  | IC50 (tumor cells [1]; [5]): 10 to 100 nM; IC50 (tumor cells [1]; [6]): 100 to 1000 nM; IC50 (tumor cells [1]; [7]): 10 to 100 nM; EC50 (tumor cells [2]; [9]): 100 to 1000 nM; EC50 (tumor cells [2]; [10]): 10 to 100 nM; EC50 [3, 11]: 10 to 100 nM; EC50 (tumor cells [4]; [12]): > 1000 nM; EC50 (tumor cells [4]; [13]): 100 to 1000 nM; EC50 (tumor cells [4]; [14]): > 1000 nM
CCOc1ccc(F)cc1C(=O)c1sc2ncc(C#N)cc2c1N [Example 120, 5-Cyano-3-amino-2-(2′-ethoxy-5′-fluorobenzoyl)-thieno[2,3-b]pyridine] | 100 to 1000 | 100 to 1000 |  |  |  |  |  |  |  |  |  | IC50 (tumor cells [1]; [5]): 100 to 1000 nM; IC50 (tumor cells [1]; [6]): 100 to 1000 nM; IC50 (tumor cells [1]; [7]): 100 to 1000 nM; EC50 (tumor cells [2]; [9]): > 1000 nM; EC50 (tumor cells [2]; [10]): 100 to 1000 nM; EC50 [3, 11]: 100 to 1000 nM; EC50 (tumor cells [4]; [12]): > 1000 nM; EC50 (tumor cells [4]; [13]): 100 to 1000 nM; EC50 (tumor cells [4]; [14]): > 1000 nM
Nc1c(C(=O)c2ccccc2N2CCCCC2)sc2ncccc12 [Example 121] | > 1000 | > 1000 | > 1000 | > 1000 | > 1000 | > 1000 | > 1000 | > 1000 | > 1000 | > 1000 | > 1000 | 
Nc1c(C(=O)c2ccccc2N2CCOCC2)sc2ncccc12 [Example 122] | > 1000 | > 1000 | > 1000 | > 1000 | > 1000 | > 1000 | > 1000 | > 1000 | > 1000 | > 1000 | > 1000 | 
Nc1c(C(=O)c2ccccc2N2CC=CCC2)sc2ncccc12 [Example 123] | > 1000 | > 1000 | > 1000 | > 1000 | > 1000 | > 1000 | > 1000 | > 1000 | > 1000 | > 1000 | > 1000 | 
Nc1c(C(=O)c2cc(F)ccc2N2CCCCC2)sc2ncccc12 [Example 124] | > 1000 | > 1000 | > 1000 | > 1000 | > 1000 | > 1000 | > 1000 | > 1000 | > 1000 | > 1000 | > 1000 | 
Nc1c(C(=O)c2cc(F)ccc2N2CCOCC2)sc2ncccc12 [Example 125] | 100 to 1000 | 100 to 1000 | > 1000 | > 1000 | 100 to 1000 | > 1000 | > 1000 | > 1000 | 100 to 1000 | > 1000 | > 1000 | 

Now from value to molecule, other results behind:

IC50 (tumor cells [1]; [8]) [nM] | EC50 (tumor cells [4]; [15]) [nM] | IC50 (tumor cells [1]; [16]) [nM] | IC50 (tumor cells [1]; [17]) [nM] | IC50 (tumor cells [1]; [18]) [nM] | EC50 (tumor cells [2]; [19]) [nM] | EC50 (tumor cells [2]; [20]) [nM] | EC50 (tumor cells [4]; [22]) [nM] | EC50 (tumor cells [4]; [23]) [nM] | EC50 (tumor cells [4]; [24]) [nM] | SMILES | EC50 [3, 21] [nM] | also measured
100 to 1000 | 100 to 1000 | 100 to 1000 | > 1000 | 100 to 1000 | > 1000 | > 1000 | > 1000 | 100 to 1000 | > 1000 | Nc1c(C(=O)c2cc(F)ccc2N2CC=CCC2)sc2ncccc12 [Example 126] | > 1000 | 
> 1000 | > 1000 | > 1000 | > 1000 | > 1000 | > 1000 | > 1000 | > 1000 | > 1000 | > 1000 | CCCOc1ccc(F)cc1C(=O)c1sc2ncc([N+](=O)[O-])cc2c1N [Example 127] | > 1000 | 
100 to 1000 | > 1000 | 100 to 1000 | > 1000 | 100 to 1000 | 100 to 1000 | 100 to 1000 | > 1000 | 100 to 1000 | > 1000 | CCCOc1ccc(F)cc1C(=O)c1sc2ncc(N)cc2c1N [Example 128] | 100 to 1000 | EC50 ([3]; PBL, read-out: Hoechst 33342 nuclear staining EC50, PBL): > 1000 nM
> 1000 | > 1000 | > 1000 | > 1000 | > 1000 | > 1000 | > 1000 | > 1000 | > 1000 | > 1000 | Nc1c(C(=O)c2cc(F)ccc2N2CCOCC2)sc2ncc([N+](=O)[O-])cc12 [Example 129] | > 1000 | 
10 to 100 | 100 to 1000 | 100 to 1000 | 100 to 1000 | 10 to 100 | 100 to 1000 | 100 to 1000 | 100 to 1000 | 100 to 1000 | > 1000 | Nc1cnc2sc(C(=O)c3cc(F)ccc3N3CCOCC3)c(N)c2c1 [Example 130] | 100 to 1000 | 
> 1000 | > 1000 | > 1000 | > 1000 | > 1000 | > 1000 | > 1000 | > 1000 | > 1000 | > 1000 | Nc1c(C(=O)c2ccccc2N2CCOCC2)sc2ncc([N+](=O)[O-])cc12 [Example 131] | > 1000 | 
100 to 1000 | > 1000 | > 1000 | > 1000 | 100 to 1000 | > 1000 | 100 to 1000 | > 1000 | > 1000 | > 1000 | Nc1cnc2sc(C(=O)c3ccccc3N3CCOCC3)c(N)c2c1 [Example 132] | > 1000 | 
10 to 100 | 10 to 100 | 10 to 100 | 10 to 100 | 10 to 100 | 10 to 100 | 10 to 100 | 10 to 100 | 10 to 100 | > 1000 | CCCOc1ccccc1C(=O)c1sc2nc(C)c(C)cc2c1N [Example 133] | 10 to 100 | 
10 to 100 | 10 to 100 | 10 to 100 | 100 to 1000 | 10 to 100 | 100 to 1000 | 10 to 100 | 10 to 100 | 10 to 100 | > 1000 | Cc1cc2c(N)c(C(=O)c3ccccc3N3CCOCC3)sc2nc1C [Example 134] | 100 to 1000 | 
10 to 100 | 10 to 100 | 10 to 100 | 100 to 1000 | 10 to 100 | 100 to 1000 | 10 to 100 | > 1000 | 10 to 100 | > 1000 | Cc1cc2c(N)c(C(=O)c3ccccc3N3CC=CCC3)sc2nc1C [Example 135] | 100 to 1000 | 
